According to US20180353461A1, “USE OF CANNABINOIDS AS CERAMIDE-GENERATING ANTICANCER AGENTS IN TUMORS OF THE HEMATOPOIETIC AND LYMPHOID TISSUES” (priority 2014, published 2018):

Key:
[1] = tested on: HL60 cells; assay: SPT expression, ceramide staining and SPT inhibition in HL60 cells; type: cell-based, human; details: HL60, co-incubation with cannabinoid, 2 hours
Experimental: Extracted proteins (15-25 ug/well) were separated by sodium dodecyl sulfate-polyacrylamide gel electrophoresis (SDS/PAGE) in pre-cast polyacrylamide gels AnykD (Bio-Rad Laboratories, Hercules, Calif., USA) under reducing and denaturing conditions. Electrophoretic run was performed at a constant current of 15 mA per gel in a Mini-Protean® Tetra Cell (Bio-Rad Laboratories) and were electrophoretically transferred onto PVDF membranes using Trans-Blot® Turbo™ System (Bio-Rad Laboratories). Blocking was performed with 2% bovine serum albumin [(BSA), Santa Cruz Biotechnology] in Tween-Tris buffer saline (TTBS). Membranes were incubated overnight at 4° C. with corresponding primary antibody in TTBS.
Cells were grown on glass cover slips (Menzel-Glaser, Thermo Fisher Scientific) in the presence or absence of WIN 55,212-2. The cover slips were then washed twice in phosphate-buffered saline (PBS), and the cells were fixed in cold 4% paraformaldehyde for 10 min, treated with sodium borohydride and, permeabilized in 0.02% Triton X-100 in PBS with 10% normal donkey serum for blocking. Cell nuclei were stained with diamidino-2-phenylindole [(DAPI), Pierce, Thermo Fisher Scientific)]. Then, cells were incubated with the anti-CB1 or anti-CB2 receptor antibodies or anti-ceramide in blocking buffer overnight at 4° C. in a humid chamber (Simport, Beloeil, QC, Canada). After washing with PBS, samples were further incubated for 90 min with Alexa 647- or Alexa 488-conjugated donkey secondary antibody.
After final washing in PBS, the cover slips were dried and mounted on slides using Fluoromount Aqueous Mounting Medium (Sigma-Aldrich). Changes in the protein expression were visualized by fluorescence microscopy using a specific excitation for each antibody. Digital images were acquired with CellSens Dimension Software (Olympus) and manipulated with Photoshop CS2 Software (Adobe Systems Inc). There was no labeling when the primary antibody was omitted (data not shown).
Additionally, de novo synthesis of ceramides also contribute to the apoptotic process triggered by cannabinoids in AML. We examined whether ceramides participate in the cannabinoid-induced apoptosis in leukemic cells. To this end, we analyzed the expression of serine palmitoyltransferase (SPT), the enzyme that catalyses the rate-limiting step of ceramide synthesis de novo. […] To ensure that this up-regulation of SPT entails an increased of ceramide synthesis, we examined the expression of ceramide by immunohistochemistry. […] Furthermore, to strengthen the engagement of the ceramide in cannabinoid-induced apoptosis, we analyzed the cannabinoid-induce apoptosis after inhibition of ceramide synthesis with Myoricin, a selective SPT inhibitor.

[2] = tested on: U266 cells; assay: SPT expression, ceramide staining and SPT inhibition in U266 cells; type: cell-based, human; details: U266, co-incubation with cannabinoid, 6 hours
Experimental: Except if otherwise indicated, for the viability assays primary cells were incubated 18 hours, with vehicle (with <0.15% DMSO) or cannabinoid. Meanwhile, the time course assays cells were performed at 0, 2, 6, 18 and 24 h. For the analysis of SPT activity, cells were co-incubated for the first 6 hours with the SPT inhibitor, myriocin, and the cannabinoid, WIN-55 or JWH-133.
Samples (15-25 ug/lane) were subjected to SDS/PAGE in pre-cast polyacrylamide gels AnykD (Bio-Rad Laboratories, Hercules, CA, USA) under reducing and denaturing conditions. Electrophoretic run was performed at a constant current of 15 mA per gel in a Mini-Protean® Tetra Cell (Bio-Rad Laboratories). Once proteins were separated by electrophoresis, were transferred onto PVDF membranes using Trans-Blot® Turbo™ System (Bio-Rad Laboratories). Electrotransference was conducted at constant amperage of 1.2 mA and at up to 25 V of voltage. The blotted membranes were then blocked with 2% bovine serum albumin [(BSA), Santa Cruz Biotechnology] in Tween-Tris buffer saline (TTBS) for 30 min with gentle agitation, and incubated overnight at 4° C. with corresponding primary antibody in TTBS. After twice washing with TTBS, membranes were incubated for 1-2 h at room temperature with suitable conjugated-HRP secondary antibody, and subjected to chemiluminescence detection using Western Blotting Luminol Reagent (Santa Cruz Biotechnology). Loading controls were carried out with an anti-beta-actin and anti-beta-tubulin antibodies (Sigma-Aldrich). Blots were captured using a digital imaging system ImageQuant LAS 4000 (Amersham GE Healthcare) and transferred to a digital image processing software to analyze (Adobe Photoshop CS2, version 9.0., Adobe Systems Inc., San Jose, Calif.).
After cannabinoids and/or antagonists or SPT inhibitor treatment, primary cells and cell lines were washed with PBS, collected and placed on slides (Menzel-Glaser, Thermo Fisher Scientific). Cells were fixed in cold 4% paraformaldehyde for 10 min, treated with sodium borohydride and, permeabilized in 0.02% Triton X-100 in PBS with 10% normal donkey serum for blocking. Then, cells were incubated with the anti-CB1 or anti-CB2 receptor antibodies, anti-active-caspase3, anti-ceramide in blocking buffer overnight at 4° C. in a humid chamber (Simport, Beloeil, QC, Canada). After washing with PBS, samples were further incubated for 90 min with Alexa 647- or Alexa 488—conjugated donkey secondary antibody. After twice washing, first with PBS and then with 50 mM Tris-HCl (pH 7.4), and were dipped in a solution of Sudan Black B (Sigma-Aldrich) in 70% methanol for 5 min. After immunocytochemistry, slides were mounted using Fluoromount Aqueous Mounting Medium (Sigma-Aldrich). Preparations were examined with an Olympus BX-61 microscope (Olympus, Hamburg, Germany) equipped with appropriate filters: FITC/Cy2 (green fluorophores) 460-490 nm bandpass excitation filter and 510-550 nm bandpass emission filter; rhodamine/Cy3 (red fluorophores) 541-551 nm excitation and 572-607 nm emission; and Cy5 (deep red fluorophore) 615-635 nm excitation and 655 nm longpass emission. Digital images were acquired with CellSens Dimension Software (Olympus) and contrasted with Photoshop CS2 Software (Adobe Systems Inc). […]
De novo synthesis of ceramides contribute to the apoptotic process triggered by cannabinoids. […] To this end, we analyzed the expression of serine palmitoyltransferase (SPT), the enzyme that catalyses the rate-limiting step of ceramide synthesis de novo. […]

CCCCCCC(=O)CCCCCC/C=C/C[C@@H](O)[C@H](O)[C@@](N)(CO)C(=O)O [Myoricin]
fragmentation of PARP induced by cannabinoid, after blockage of ceramide synthesis [1]: abolished, at least in part | fragmentation of PARP induced by cannabinoid, after blockage of ceramide synthesis [2]: abolished, at least in part
